Assay results published in patent US11033538B2, “Dosing regimens for the treatment of lysosomal storage diseases using pharmacological chaperones” (Amicus Therapeutics, Inc., priority 2007, dated 2021).
Where two headings read alike, the source gives them in different places.

Key:
[1] = target: T1, α-GAL (Homo sapiens, UniProt P06280); format: in vivo
T1 construct: α-GAL activity was calculated in white blood cells (WBC); endogenous in cells; host or cells: white blood cells of healthy male volunteers
T1 sequence (P06280 32-429): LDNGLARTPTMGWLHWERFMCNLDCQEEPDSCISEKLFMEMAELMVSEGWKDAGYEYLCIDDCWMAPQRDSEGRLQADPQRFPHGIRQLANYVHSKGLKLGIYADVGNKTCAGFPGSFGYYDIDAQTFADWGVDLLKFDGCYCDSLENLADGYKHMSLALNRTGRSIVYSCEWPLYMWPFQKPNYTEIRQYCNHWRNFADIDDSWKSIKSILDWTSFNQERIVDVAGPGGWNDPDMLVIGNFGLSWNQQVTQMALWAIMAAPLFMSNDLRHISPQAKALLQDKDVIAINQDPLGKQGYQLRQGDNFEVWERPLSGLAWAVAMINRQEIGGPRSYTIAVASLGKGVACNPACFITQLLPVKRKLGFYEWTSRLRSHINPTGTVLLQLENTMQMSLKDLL
Protocol: A multiple-dose Phase I trial was conducted and consisted of a total of 16 healthy volunteers divided into two groups of eight subjects. […] All subjects in one group received placebo or 50 mg twice a day for seven days, and all subjects in the other group received placebo or 150 mg twice a day for seven days. Subjects were evaluated at the beginning of the study, on Day 7 after seven days of treatment and on Day 14 after a seven day washout period.
Blood samples (10 mL each) were collected in blood collection tubes containing EDTA and WBC extracted before dosing and at the following times thereafter: 100 hours, 150 hours, and 336 hours. Samples were treated as described above, and WBC α-GAL enzymatic activity levels were determined as described in Desnick, R. J. (ed) Enzyme therapy in genetic diseases. Vol 2. Alan R Liss, New York, pp 17-32. Statistical Analysis. Safety data including laboratory evaluations, physical exams, adverse events, ECG monitoring and vital signs assessments were summarized by treatment group and point of time of collection. Descriptive statistics (arithmetic mean, standard deviation, median, minimum and maximum) were calculated for quantitative safety data as well as for the difference to baseline. Frequency counts were compiled for classification of qualitative safety data. In addition, a shift table describing out of normal range shifts was provided for clinical laboratory results. A normal-abnormal shift table was also presented for physical exam results and ECGs.

[2] = system: Fabry patients; assay: Example 6, renal function (eGFR); format: in vivo, human; conditions: good responders
Protocol: Renal function was evaluated using glomerular filtration rate (GFR).
Renal function was measured using glomerular filtration rate (GFR) (MDRD equation was used to estimate GFR using serum creatinine adjusted for age, gender and race). Approximately half of all Fabry patients have an abnormally low GFR (<90 ml/min/1.73 m^2). […] As shown in FIG. 17A-B, the good responders maintained a mean eGFR within the normal eGFR range of 90-120 ml/min/1.73 m^2 during the entire treatment procedure (FIG. 17A), while the predicted mean eGFR level of untreated individual is projected to continue declining below 90 ml/min/1.73 m^2 (FIG. 17B).

[3] = system: GL-3; assay: Example 12, GL-3 levels in tissues of hR301Q GLA Tg/KO mice; format: in vivo; conditions: 3-300 mg/kg/day, 4 weeks; p<0.05 vs. untreated
Protocol: Tissue lysates from skin, heart, and kidney were prepared and tested for GLA activity (using 4-MUG as substrate, expressed in nmol/mg protein/hr), GLA protein (using immunoblotting of […] tissue lysate with anti-human GLA antibody) and GL-3 levels (using LC-MS/MS, expressed in mg/g of tissue weight). […] Each bar represents the mean±SEM of n=7-8 mice/group. Each lane in the Western blots represents one mouse from each group.

OC[C@H]1NC[C@H](O)[C@@H](O)[C@H]1O [DGJ, (2R,3S,4R,5S)-2-(hydroxymethyl) piperdine-3,4,5-triol]
inhibition of WBC α-GAL enzymatic activity ([1]; 50 mg b.i.d. or 150 mg b.i.d.): did not inhibit WBC α-GAL enzymatic activity | WBC α-GAL enzymatic activity ([1]; 50 mg b.i.d., 100 hours): 120 % pre-dose levels | WBC α-GAL enzymatic activity ([1]; 50 mg b.i.d., 150 hours): 130 % pre-dose levels | WBC α-GAL enzymatic activity ([1]; 50 mg b.i.d., 336 hours): 145 % pre-dose levels | WBC α-GAL enzymatic activity ([1]; 150 mg b.i.d., 100 hours): 150 % pre-dose levels | WBC α-GAL enzymatic activity ([1]; 150 mg b.i.d., 150 hours): 185 % pre-dose levels | WBC α-GAL enzymatic activity ([1]; 150 mg b.i.d., 336 hours): 185 % pre-dose levels | GLA levels in white blood cell lysates ([1]; 50 and 150 mg twice daily for 7 days): increased GLA levels | increase in levels of α-GAL in white blood cells ([1]; highest dose level (150 mg twice a day for seven days), healthy volunteers): ~2 fold | persistence of the α-GAL increase ([1]; highest dose level, after the last dose): maintained for at least seven days after the last dose | mean eGFR maintained during the entire treatment [2]: 90-120 ml/min/1.73 m^2 | GL-3 levels in skin, heart, kidney [3]: significant reduction in GL-3 levels
